According to US20140037642A1, “METHODS AND COMPOSITIONS RELATING TO INHIBITION OF IGF-1R” (AMGEN INC., priority 2011, published 2014):

What was measured:
[1] = tested on: metastatic pancreatic cancer patients; experiment: Placebo-controlled, randomized phase 2 study plus gemcitabine; assay type: in vivo, human
Experimental: The primary endpoint was six month overall survival rate.
Key inclusion criteria were histologically or cytologically documented metastatic adenocarcinoma of the pancreas, age eighteen years or older, ECOG PS 0 or 1, adequate hematologic, hepatic, renal, and coagulation function, amylase and lipase≦2.0×ULN, adequately controlled type 1 or 2 diabetes (amended during protocol to fasting blood glucose<[…] only), fasting blood glucose≦[…], HbAlc<8%, and written informed consent.
Key exclusion criteria were uncontrolled cardiac disease and prior chemotherapy or radiation in the adjuvant or metastatic setting.

[2] = tested on: metastatic pancreatic cancer patients; experiment: Overall survival in baseline circulating biomarker subgroups of the phase 2 study; assay type: in vivo, human; set-up: Median OS: unit not given here
Description: To establish the relationship between levels of these baseline markers and overall survival, a Cox proportional hazard model was used to calculate hazard ratios (HR) using normalized log transformed marker concentrations. This analysis tests the risk of death associated with a unit increase in the normalized log baseline biomarker and this risk is expressed as a hazard ratio. Because of the small sample size, it is difficult to dissect prognostic associations from relationships that are modified by treatment with ganitumab relative to placebo, i.e., predictive. This is because the addition of treatment effect adds a variable to the analysis that compromises the power of the test masking significant predictive relationships that may exist. However even a prognostic relationship identified in this analysis is important because it informs the hypothesized relationship between circulating bioavailable ligands and the adaptation of the tumor to IGF-1R dependent progression, and in turn sensitivity to inhibitors that block IGF-1R or downstream signaling pathways.
This allows a direct test of the predictive value of using these markers in a dichotomized way to predict OS in pancreatic cancer patients that are treated with inhibitors of IGF-1R.
To represent these relationships Kaplan-Maier plots were generated that show the OS for the high and low subgroups by plotting the fraction of patients in each sub-group that survive against time.

[3] = molecular target: IGF-1R (Homo sapiens, UniProt P08069); details: biphasic binding; read-out: KD of high affinity binding to IGF-1R; cited from earlier work
[4] = patients with measurable disease at baseline, plus gemcitabine
[5] = plus gemcitabine, conatumumab 10 mg/kg Q2W or ganitumab 12 mg/kg Q2W
[6] = plus gemcitabine, conatumumab 10 mg/kg Q2W or ganitumab 12 mg/kg Q2W, listed as conatumumab
[7] = versus placebo plus gemcitabine

Conatumumab: conatumumab (AMG 655), amino acid sequences in FIG. 19; given with gemcitabine in the phase 2 study
Best Overall Response: Confirmed CR - n (%) [1, 4]: 0 (0) n (%)
Best Overall Response: Confirmed PR - n (%) [1, 4]: 1 (3) n (%)
Best Overall Response: PD - n (%) [1, 4]: 12 (32) n (%)
Best Overall Response: SD (Includes Unconfirmed PR) - n (%) [1, 4]: 22 (58) n (%)
Best Overall Response: Unconfirmed PR - n (%) [1, 4]: 2 (5) n (%)
Best Overall Response: Unknown - n (%) [1, 4]: 3 (8) n (%)
Abdominal pain, grade 3-5 ([1]; plus gemcitabine): 7 (17) n (%)
Anemia, grade 3-5 ([1]; plus gemcitabine): 4 (10) n (%)
Aspartate Aminotransferase Increased, grade 3-5 ([1]; plus gemcitabine): 3 (7) n (%)
Deep Vein Thrombosis, grade 3-5 ([1]; plus gemcitabine): 4 (10) n (%)
Fatigue, grade 3-5 ([1]; plus gemcitabine): 5 (12) n (%)
Hyperbilirubinemia, grade 3-5 ([1]; plus gemcitabine): 2 (5) n (%)
Hyperglycemia, grade 3-5 ([1]; plus gemcitabine): 1 (2) n (%)
Hypotension, grade 3-5 ([1]; plus gemcitabine): 3 (7) n (%)
Neutropenia, grade 3-5 ([1]; plus gemcitabine): 9 (22) n (%)
Pulmonary Embolism, grade 3-5 ([1]; plus gemcitabine): 1 (2) n (%)
Thrombocytopenia, grade 3-5 ([1]; plus gemcitabine): 7 (17) n (%)
rate of SD+PR ([1]; plus gemcitabine): 61%
6-Month OS Rate (95% CI) [1, 5]: 59% (42, 73)
12-Month OS Rate (95% CI) [1, 5]: 20% (9, 34)
Median OS, Months (95% CI) [1, 5]: 7.5 (4.8, 10.0) Months
Median PFS, Months (95% CI) [1, 5]: 4.0 (3.3, 5.0) Months
6-Month OS Rate (95% CI) [1, 6]: 59%
Median PFS, Months (95% CI) [1, 6]: 4.0 Months
Number of Patients Reporting ≧1 AE, grade 3-5 ([1]; plus gemcitabine, conatumumab N = 41, ganitumab N = 40): 36 (88) n (%)
Stratified HR (95% CI), OS [1, 7]: 0.87 (0.53, 1.43)
Stratified HR (95% CI), PFS [1, 7]: 0.65 (0.41, 1.05)
Stratified HR (95% CI), PFS ([1]; versus placebo plus gemcitabine, listed as conatumumab): 0.65
Median OS ([2]; IGF-2 High (>=median)): 214
OS HR, treatment vs placebo ([2]; IGF-2 High (>=median)): 0.56
Median OS ([2]; IGF-2 Low (<median)): 263
OS HR, treatment vs placebo ([2]; IGF-2 Low (<median)): 1.08
Median OS ([2]; IGF-BP1 High (>=median)): 178
OS HR, treatment vs placebo ([2]; IGF-BP1 High (>=median)): 0.77
Median OS ([2]; IGF-BP1 Low (<median)): 254
OS HR, treatment vs placebo ([2]; IGF-BP1 Low (<median)): 0.68
Median OS ([2]; IGF-BP2 High (>=median)): 178
OS HR, treatment vs placebo ([2]; IGF-BP2 High (>=median)): 0.69
Median OS ([2]; IGF-BP2 Low (<median)): 244
OS HR, treatment vs placebo ([2]; IGF-BP2 Low (<median)): 0.91
Median OS ([2]; IGF-BP3 High (>=median)): 244
OS HR, treatment vs placebo ([2]; IGF-BP3 High (>=median)): 0.77
Median OS ([2]; IGF-BP3 Low (<median)): 129
OS HR, treatment vs placebo ([2]; IGF-BP3 Low (<median)): 0.86
Median OS ([2]; IGF-BP4 High (>=median)): 216
OS HR, treatment vs placebo ([2]; IGF-BP4 High (>=median)): 0.97
Median OS ([2]; IGF-BP4 Low (<median)): 216
OS HR, treatment vs placebo ([2]; IGF-BP4 Low (<median)): 0.86
Median OS ([2]; Total IGF-1 High (>=median)): 231
OS HR, treatment vs placebo ([2]; Total IGF-1 High (>=median)): 0.56
Median OS ([2]; Total IGF-1 Low (<median)): 178
OS HR, treatment vs placebo ([2]; Total IGF-1 Low (<median)): 0.53

IGF-2: insulin-like growth factor, ligand of IGF-1R
Kd [3]: ~0.2 nM
